The numbers were not newly measured in US20090202668A1, “Use of a polyphenol in the treatment of the metabolic syndrome and endothelial dysfunction or other vascular sequellae” (priority 2006, published 2009), which cites them from elsewhere.

In the series the target is T1, CETP (Homo sapiens, UniProt P11597).
T1 sequence (P11597 18-493): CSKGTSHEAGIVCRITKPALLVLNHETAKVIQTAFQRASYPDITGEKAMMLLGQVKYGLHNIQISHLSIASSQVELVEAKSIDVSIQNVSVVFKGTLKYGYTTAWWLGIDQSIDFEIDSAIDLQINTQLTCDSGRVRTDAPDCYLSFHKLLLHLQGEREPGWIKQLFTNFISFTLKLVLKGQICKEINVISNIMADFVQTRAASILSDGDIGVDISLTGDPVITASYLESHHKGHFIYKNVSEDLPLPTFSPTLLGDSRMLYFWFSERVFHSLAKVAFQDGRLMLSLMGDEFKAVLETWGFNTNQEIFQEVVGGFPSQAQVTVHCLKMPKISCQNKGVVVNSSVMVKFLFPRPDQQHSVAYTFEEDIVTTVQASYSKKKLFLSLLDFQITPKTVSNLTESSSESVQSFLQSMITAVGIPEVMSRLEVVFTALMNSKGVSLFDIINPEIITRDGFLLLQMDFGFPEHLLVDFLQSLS

On to `CCOC(=O)N1c2ccc(C(F)(F)F)cc2[C@@H](N(Cc2cc(C(F)(F)F)cc(C(F)(F)F)c2)C(=O)OC)C[C@H]1CC` [Torcetrapib], for which the side effects entry is given as “major side effects such as death”. Moreover, the “results of HDL-increasing treatment” value (CETP-inhibitor) is “poor results”.
